Experimental data published in patent publication EP0591765A2, “1,4-Dihydropyridine-alkoxy and alkylamino esters as antihypertensives” (BAYER AG, priority 1992, dated 1994).

System: SH-Ratte
Experiment: Blood pressure lowering in conscious spontaneously hypertensive rats (tail cuff, oral dosing)
Format: in vivo
Settings: Rattus norvegicus; SH-Ratte: Blutdrucksenkung >15 mm; intragastral ("oral") in Tylosesuspension; read-out: Grenzdosis
Excerpt: Die Substanzen wurden an der wachen Ratte auf ihre blutdrucksenkende Wirkung hin untersucht. An wachen Ratten mit genetisch bedingtem Hochdruck ("spontan hypertone Ratten" des Okamoto-Stammes) wird der arterielle Blutdruck mit der "Schwanz-Manchette" in definierten Zeitabständen nach Substanzgabe unblutig gemessen. Die zu prüfenden Substanzen werden aufgeschwemmt in einer Tylosesuspension intragastral ("oral") per Schlundsonde in verschiedenen Dosen appliziert. Die erfindungsgemäßen Verbindungen senken den arteriellen Blutdruck der Hochdruckratten in klinisch relevanter Dosierung.

| Compound | minimal effective dose |
| --- | --- |
| CC(=O)Oc1ccccc1C(=O)OCCOC(=O)C1=C(C)NC(C)=C(C(=O)OC(C)C)C1c1ccccc1[N+](=O)[O-] (stereo not drawn) [Beispiel 2] | 30 mg/kg |
| CC(=O)Oc1ccccc1C(=O)OCCOC(=O)C1=C(C)NC(C)=C(C(=O)OC(C)C)C1c1ccccc1C(F)(F)F (stereo not drawn) [Beispiel 3] | 10 mg/kg |
| CCOC(=O)C1=C(C)NC(C)=C(C(=O)OCCOC(=O)c2ccccc2OC(C)=O)C1c1ccccc1C(F)(F)F (stereo not drawn) [Beispiel 5, 5-[2-(2-Acetoxybenzoyloxy)ethoxycarbonyl]-2,6-dimethyl-4-(2-trifluormethylphenyl)-1,4-dihydropyridin-3-carbonsäureethylester] | 10 mg/kg |
| COC(=O)C1=C(C)NC(C)=C(C(=O)OCCOC(=O)c2ccccc2OC(C)=O)C1c1cccc(Cl)c1Cl (stereo not drawn) [Beispiel 6, 5-[2-(2-Acetoxybenzoyloxy)ethoxycarbonyl]-2,6-dimethyl-4-(2,3-dichlorphenyl)-1,4-dihydropyridin-3-carbonsäuremethylester] | 3 mg/kg |
| CC(=O)Oc1ccccc1C(=O)OCCOC(=O)C1=C(C)NC(C)=C(C(=O)OC(C)C)C1c1ccccc1Cl (stereo not drawn) [Beispiel 4] | 30 mg/kg |
| COC(=O)C1=C(C)NC(C)=C(C(=O)OCCOC(=O)c2ccccc2OC(C)=O)C1c1ccccc1C(F)(F)F (stereo not drawn) [Beispiel 1, 5-[2-(2-Acetoxybenzoyloxy)ethoxycarbonyl]-2,6-dimethyl-4-(2-trifluormethylphenyl)-1,4-dihydropyridin-3-carbonsäuremethylester] | 10 mg/kg |
